Legend:
Human collagenase = target: T1, Human collagenase (Homo sapiens, UniProt P03956); experiment: Inhibitory Activity of Collagenase; format: biochemical; conditions: at 1 × 10^−6M; activated collagenase from human skin fibroblast culture medium, FTTC-labeled calf skin type I collagen, 37° C., 120 minutes
T1 construct: endogenous in cells; host or cells: human skin fibroblasts stimulated with interleukin-1β
T1 sequence (P03956 100-469): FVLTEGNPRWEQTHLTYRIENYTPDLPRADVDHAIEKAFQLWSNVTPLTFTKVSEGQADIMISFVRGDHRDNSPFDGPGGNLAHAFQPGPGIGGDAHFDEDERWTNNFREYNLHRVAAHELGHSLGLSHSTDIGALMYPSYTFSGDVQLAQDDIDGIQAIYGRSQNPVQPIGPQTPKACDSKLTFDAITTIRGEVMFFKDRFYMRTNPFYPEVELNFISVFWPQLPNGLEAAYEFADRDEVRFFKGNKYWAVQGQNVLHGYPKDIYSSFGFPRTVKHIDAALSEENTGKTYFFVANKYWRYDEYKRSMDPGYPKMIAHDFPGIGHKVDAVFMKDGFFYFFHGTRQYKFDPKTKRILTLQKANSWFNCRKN
Experimental: Human collagenase was prepared from the culture medium of human skin fibroblast stimulated with interleukin-1β (1 ng/ml). Latent collagenase was activated by incubation with trypsin (200 μg/ml) at 37° C. for 60 minutes and the reaction was stopped by adding soybean trypsin inhibitor (800 μg/ml). Collagenase activity was determined using FTTC-labeled calf skin type I collagen. FTTC-collagen (2.5 mg/ml) was incubated at 37° C. for 120 minutes with the activated collagenase and test compound in 50 mM Tris buffer (containing 5 mM CaCl2, 200 mM NaCl and 0.02% NaN3, pH 7.5). After stopping the enzyme reaction by adding the equal volume of 70% ethanol-200 mM Tris buffer (pH 9.5), the reaction mixture was centrifuged, and collagenase activity was estimated by measuring the fluorescence intensity of supernatant at 495 nm (excitation) and 520 nm (emission).

Inhibitory activity (Human collagenase) [% at 1 × 10^−6M]	melting point [°C]	SMILES
	170 to 172	CN(C)S(=O)(=O)N1CCN(S(=O)(=O)c2ccc(-c3ccc(CC#N)cc3)s2)[C@@H](C(=O)NO)C1 [Example 173, (2R)-1-[5-(4-Cyanomethylphenyl)thiophene-2-sulfonyl)-4-(N,N-dimethylaminosulfonyl)-N-hydroxy-2-piperazinecarboxamide]
	153 to 155	CN(C)S(=O)(=O)N1CCN(S(=O)(=O)c2ccc(Oc3ccccc3)cc2)[C@@H](C(=O)NO)C1 [Example 176, (2R)-4-(N,N-Dimethylaminosulfonyl)-N-hydroxy-1-(4-phenoxybenzenesulfonyl)-2-piperazinecarboxamide]
	105 to 108	CS(=O)(=O)NCCS(=O)(=O)N1CCN(S(=O)(=O)c2ccc(-c3ccc(C(F)(F)F)cc3)s2)[C@@H](C(=O)NO)C1 [Example 181, (2R)-N-Hydroxy-4-(2-(methanesulfonylamino)ethanesulfonyl]-1-[5-(4-trifluoromethylphenyl)thiophene-2-sulfonyl]-2-piperazinecarboxamide]
	118 to 122	CS(=O)(=O)NCCS(=O)(=O)N1CCN(S(=O)(=O)c2ccc(-c3ccc(Cl)cc3)s2)[C@@H](C(=O)NO)C1 [Example 182, (2R)-1-[5-(4-Chlorophenyl)thiophene-2-sulfonyl]-N-hydroxy-4-[2-(methanesulfonylamino)ethanesulfonyl]-2-piperazinecarboxamide]
	94 to 99	CS(=O)(=O)N1CCN(S(=O)(=O)/C=C/c2ccccc2)[C@@H](C(=O)NO)C1 [Example 189, (2R)-N-Hydroxy-1-(2-phenyl-2-trans-ethenylsulfonyl)-4-methanesulfonyl-2-piperazinecarboxamide]

Second part, the compound before the results:

SMILES	Inhibitory activity (Human collagenase) [% at 1 × 10^−6M]	melting point [°C]
CS(=O)(=O)N1CCN(S(=O)(=O)c2ccc([N+](=O)[O-])cc2)[C@@H](C(=O)NO)C1 [Example 5, (2R)-1-(4-nitrobenzenesulfonyl)-4-methanesulfonylpiperazine-2-(N-hydroxy)carboxamide]	95.3	
CS(=O)(=O)N1CCN(S(=O)(=O)c2ccc(-c3cccs3)cc2)[C@@H](C(=O)NOC2CCCCO2)C1 (stereo partly drawn) [Example 61, (2R)-4-Methanesulfonyl-1-[4-(thiophen-2-yl)benzenesulfonyl]-N-(2-tetrahydropyranyloxy)-2-piperazinecarboxamide]		194 to 195
O=C(NO)[C@H]1CN(S(=O)(=O)CCc2ccccn2)CCN1S(=O)(=O)c1ccc(-c2ccccc2)s1 [Example 106, (2R)-N-Hydroxy-1-(5-phenylthiophene-2-sulfonyl)-4-[2-(2-pyridyl)-ethanesulfonyl]-2-piperazinecarboxamide]		170 to 174
O=C(NO)[C@H]1CN(C(=O)Nc2ccccc2)CCN1S(=O)(=O)c1ccc(-c2ccc(F)cc2)s1 [Example 108, (2R)-1-[5-(4-Fluorophenyl)thiophene-2-sulfonyl]-N-hydroxy-4-[(N-phenyl)aminocarbonyl]-2-piperazinecarboxamide]		187 to 188
O=C(NO)[C@H]1CN(C(=O)NC2CCCCC2)CCN1S(=O)(=O)c1ccc(-c2ccc(F)cc2)s1 [Example 109, (2R)-4-[(N-Cyclohexyl)aminocarbonyl]-1-[5-(4-fluorophenyl)-thiophene-2-sulfonyl]-N-hydroxy-2-piperazinecarboxamide]		111 to 123
O=C(NO)[C@H]1CN(S(=O)(=O)c2ccc(-c3ccon3)s2)CCN1S(=O)(=O)c1ccc(-c2ccccc2)s1 [Example 139, (2R)-N-Hydroxy-4-[5-(isoxazol-3-yl)thiophene-2-sulfonyl]1-(5-phenylthiophene-2-sulfonyl)-2-piperazinecarboxamide]		204
CCN(C)S(=O)(=O)[C@@]1(C(=O)NO)CNCCN1S(=O)(=O)c1ccc(-c2ccc(Cl)cc2)s1 [Example 162, (2R)-1-[5-(4-Chlorophenyl)thiophene-2-sulfonyl]-N-hydroxy-2-(N-methylethylaminosulfonyl)-2-piperazinecarboxamide]		170 to 172
